System: eggs of cat flea
Assay: Hatching inhibition of cat flea eggs on treated filter paper (Test Example 1)
Format: in vivo, cat flea (Ctenocephalides felis)
Conditions: 26° C., 95% humidity, 5 days, corrected against non-treated hatching ratio 92.4%
Method: Each of pyriproxyfen, 1S,3S,4S,6R-carane-3,4-diol and a mixture thereof was diluted with acetone, added dropwise to a filter paper (3.8 cm in diameter) and dried. About 20 eggs (within 24 hours after laid) of cat flea were set on the filter paper prepared above. The filter paper was held in a plastic plate, kept 26° C. of temperature and 95% of humidity for 5 days and hatching was observed.
Hatching inhibition ratio (%) in Table represents a corrected inhibition ratio (%) which is calculated by the following:
Hatching inhibition ratio (%)={(C−T)/C}×100
wherein C is a hatching ratio (92.4%) of flea at non-treated area and T is a hatching ratio of flea at treated area.
In the table, PY means pyriproxyfen and CA means 1S,3S,4S,6R-carane-3,4-diol. The treated dosage unit is mg/m^2.

Compound	Hatching inhibition ratio (%) (treated dosage 0.1 mg/m^2 on filter paper)	Hatching inhibition ratio (%) (treated dosage 10 mg/m^2 on filter paper)	Hatching inhibition ratio (%) (treated dosage 100 mg/m^2 on filter paper)
CC(COc1ccc(Oc2ccccc2)cc1)Oc1ccccn1 (stereo not drawn) [PY, pyriproxyfen]	58.1	–	–
CC1(C)[C@@H]2C[C@H](O)[C@@](C)(O)C[C@@H]21 [CA, 1S,3S,4S,6R-carane-3,4-diol]	–	3.1	12.1

Reference: patent US6346261B1, “Pesticidal composition” (priority 1997, dated 2002)
